# Reference: patent US11440899B2, “Pyrimidine TBK/IKKe inhibitor compounds and uses thereof” (Merck Patent GmbH, priority 2017, dated 2022)
# Counter-ions that a name gives are not always drawn.
# Key:
# [1] = target: IKKe (Homo sapiens (Human), UniProt Q14164); test: IKKe Biochemical Assay
# Procedure: IKKe Biochemical Assay Test compounds were transferred into Labcyte polypropylene 384 well plates ([…]-25) and diluted to 3 mM using DMSO. 3 mM test compounds were dispensed using Labcyte ECHO dose response module into Greiner 784075 plates (columns 3-12 and 13-22, 10 point 1:4) so that high concentration was 30 uM final. 100 uM of a reference compound (1 uM final high concentration). Backfilling was performed if necessary so that all wells contain 1% DMSO final: add 75 nl DMSO/well into columns 1, 2 and 24 using Labcyte Echo. add 75 nl 1.0 mM staurosporine/well into column 23 using Labcyte Echo (10 uM final) add 4.5 ul enzyme/well using multidrop dispenser add 3 ul substrate/well using multidrop dispenser incubate at 25° C. for 90 min. add 7.5 ul 2× stop buffer read on labchip ez reader II using IKKε. job Raw data files were opened in the Caliper LabChip Reviewer program (Version 3.0.265.0 SP2) and peak assignments were adjusted to reflect “substrate first” with the software's post-run analysis options. A spline-fit baseline was applied using the software's analysis algorithm.
# [2] = target: TBK1 (Homo sapiens (Human), UniProt Q9UHD2); test: TBK Biochemical Assay
# TBK1, sequence (Q9UHD2 whole entry, species assumed): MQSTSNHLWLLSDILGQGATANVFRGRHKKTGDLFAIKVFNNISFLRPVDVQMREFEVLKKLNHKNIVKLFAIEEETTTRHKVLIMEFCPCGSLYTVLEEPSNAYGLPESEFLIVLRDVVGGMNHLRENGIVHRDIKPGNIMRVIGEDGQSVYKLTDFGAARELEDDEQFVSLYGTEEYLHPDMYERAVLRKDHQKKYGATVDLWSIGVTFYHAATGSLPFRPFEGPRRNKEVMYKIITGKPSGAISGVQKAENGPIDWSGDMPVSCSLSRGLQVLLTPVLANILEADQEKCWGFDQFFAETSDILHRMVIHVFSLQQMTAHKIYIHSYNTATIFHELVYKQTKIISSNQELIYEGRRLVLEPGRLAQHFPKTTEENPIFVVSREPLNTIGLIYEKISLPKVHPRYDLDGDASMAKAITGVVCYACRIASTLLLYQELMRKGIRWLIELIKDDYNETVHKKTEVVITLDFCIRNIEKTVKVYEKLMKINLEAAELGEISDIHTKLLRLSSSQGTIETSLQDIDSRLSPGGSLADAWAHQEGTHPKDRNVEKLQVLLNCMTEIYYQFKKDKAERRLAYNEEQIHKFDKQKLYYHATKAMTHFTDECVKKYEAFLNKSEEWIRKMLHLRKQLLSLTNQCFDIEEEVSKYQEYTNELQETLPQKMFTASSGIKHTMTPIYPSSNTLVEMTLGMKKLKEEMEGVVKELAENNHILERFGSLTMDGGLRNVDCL
# Procedure: Example 106: TBK Biochemical Assay Test compounds were transferred into Labcyte polypropylene 384 well plates ([…]-25) and diluted to 3 mM using DMSO. 3 mM test compounds were dispensed using Labcyte ECHO dose response module into Greiner 784075 plates (columns 3-12 and 13-22, 10 point 1:4) so that high concentration was 30 uM final. 100 uM of a reference compound (1 uM final high concentration). Backfilling was performed if necessary so that all wells contain 1% DMSO final: add 75 nl DMSO/well into columns 1, 2 and 24 using Labcyte Echo. add 75 nl 1.0 mM staurosporine/well into column 23 using Labcyte Echo (10 uM final) add 4.5 ul enzyme/well using multidrop dispenser add 3 ul substrate/well using multidrop dispenser incubate at 25° C. in Heidolph incubator for 90 min. add 7.5 ul 2× stop buffer using multidrop dispenser read on labchip ez reader II using TBK1.job Raw data files were opened in the Caliper LabChip Reviewer program (Version 3.0.265.0 SP2) and peak assignments were adjusted to reflect “substrate first” with the software's post-run analysis options. A spline-fit baseline was applied using the software's analysis algorithm.
# IKKe, sequence (Q14164 whole entry, species assumed): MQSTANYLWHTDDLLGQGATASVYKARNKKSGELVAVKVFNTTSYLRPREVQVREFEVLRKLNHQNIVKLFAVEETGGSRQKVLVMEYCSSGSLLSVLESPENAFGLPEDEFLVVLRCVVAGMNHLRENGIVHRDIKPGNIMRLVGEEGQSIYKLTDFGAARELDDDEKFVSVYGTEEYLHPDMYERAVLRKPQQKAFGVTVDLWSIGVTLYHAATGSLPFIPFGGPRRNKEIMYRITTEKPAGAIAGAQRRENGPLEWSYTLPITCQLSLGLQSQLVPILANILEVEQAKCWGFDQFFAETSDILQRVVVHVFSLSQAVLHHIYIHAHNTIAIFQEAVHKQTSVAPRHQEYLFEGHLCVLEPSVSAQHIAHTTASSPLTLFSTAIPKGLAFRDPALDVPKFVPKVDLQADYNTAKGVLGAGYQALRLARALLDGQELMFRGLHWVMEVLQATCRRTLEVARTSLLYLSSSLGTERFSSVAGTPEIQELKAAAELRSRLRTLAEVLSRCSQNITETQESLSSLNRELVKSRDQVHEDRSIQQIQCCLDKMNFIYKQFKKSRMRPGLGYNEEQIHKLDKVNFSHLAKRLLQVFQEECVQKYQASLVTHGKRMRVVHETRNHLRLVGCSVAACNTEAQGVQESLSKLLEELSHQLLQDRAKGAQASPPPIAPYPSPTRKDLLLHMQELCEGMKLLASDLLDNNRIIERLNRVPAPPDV
Compound,IC50 [1],IC50 [2]
"COc1nc(Nc2cc(-c3ccc(OC4CCOCC4)c(C#N)c3)ncn2)ccc1C(=O)N(C)C [Example 1, 6-([6-[3-cyano-4-(oxan-4-yloxy)phenyl]pyrimidin-4-yl]amino)-2-methoxy-N,N-dimethylpyridine-3-carboxamide]",< 100 nM,< 100 nM
"COc1nc(Nc2cc(-c3ccc(OC4CCOCC4)c(C#N)c3)ncn2)ccc1C(=O)N(C)CCO [Example 2, 6-([6-[3-cyano-4-(oxan-4-yloxy)phenyl]pyrimidin-4-yl]amino)-N-(2-hydroxyethyl)-2-methoxy-N-methylpyridine-3-carboxamide]",< 100 nM,< 100 nM
"COc1nc(Nc2cc(-c3ccc(OC4CCOCC4)c(C#N)c3)ncn2)ccc1C(=O)N1CC2CC(C1)O2 [Example 3, 5-(6-[[6-methoxy-5-([6-oxa-3-azabicyclo[3.1.1]heptan-3-yl]carbonyl)pyridin-2-yl]amino]pyrimidin-4-yl)-2-(oxan-4-yloxy)benzonitrile]",< 100 nM,< 100 nM
"COc1nc(Nc2cc(-c3ccc(OC4CCOCC4)c(C#N)c3)ncn2)ccc1C(=O)NC1C2COCC21 (stereo not shown) [Example 4, 6-([6-[3-cyano-4-(oxan-4-yloxy)phenyl]pyrimidin-4-yl]amino)-2-methoxy-N-[3-oxabicyclo[3.1.0]hexan-6-yl]pyridine-3-carboxamide]",< 100 nM,< 100 nM
"COc1nc(Nc2cc(-c3ccc(OC4CCOCC4)c(C#N)c3)ncn2)ccc1C(=O)N1CC2CCC(C1)O2 [Example 5, 5-(6-((5-(8-oxa-3-azabicyclo[3.2.1]octane-3-carbonyl)-6-methoxypyridin-2-yl)amino)pyrimidin-4-yl)-2-((tetrahydro-2H-pyran-4-yl)oxy)benzonitrile]",< 100 nM,< 100 nM
"COc1nc(Nc2cc(-c3ccc(OC4CCOCC4)c(C#N)c3)ncn2)ccc1C(=O)N1CC2COCC2C1 (stereo not shown) [Example 6, 5-(6-[[5-([hexahydro-1H-furo[3,4-c]pyrrol-5-yl]carbonyl)-6-methoxypyridin-2-yl]amino]pyrimidin-4-yl)-2-(oxan-4-yloxy)benzonitrile]",< 100 nM,< 100 nM
"COc1nc(Nc2cc(-c3ccc(OC4CCOCC4)c(C#N)c3)ncn2)ccc1C(=O)NC1CCN(C)CC1 [Example 7, 6-([6-[3-cyano-4-(oxan-4-yloxy)phenyl]pyrimidin-4-yl]amino)-2-methoxy-N-(1-methylpiperidin-4-yl)pyridine-3-carboxamide hydrochloride]",< 100 nM,< 100 nM
"COc1nc(Nc2cc(-c3ccc(OC4CCOCC4)c(C#N)n3)ncn2)ccc1C(=O)N(C)C [Example 8, 6-([6-[6-cyano-5-(oxan-4-yloxy)pyridin-2-yl]pyrimidin-4-yl]amino)-2-methoxy-N,N-dimethylpyridine-3-carboxamide]",1000 to 5000 nM,1000 to 5000 nM
"COc1nc(Nc2cc(-c3cnc(OC4CCOCC4)c(C#N)c3)ncn2)ccc1C(=O)N(C)C [Example 9, 6-([6-[5-cyano-6-(oxan-4-yloxy)pyridin-3-yl]pyrimidin-4-yl]amino)-2-methoxy-N,N-dimethylpyridine-3-carboxamide hydrochloride]",< 100 nM,< 100 nM
"COc1nc(Nc2cc(-c3ccc(OC4CCOCC4)c(C#N)c3)ncn2)ccc1N1CCS(=O)(=O)CC1 [Example 10, 5-(6-[[5-(1,1-dioxo-1λ,4-thiomorpholin-4-yl)-6-methoxypyridin-2-yl]amino]pyrimidin-4-yl)-2-(oxan-4-yloxy)benzonitrile]",< 100 nM,< 100 nM
"COc1nc(Nc2cc(-c3ccc(OC4CCOCC4)c(C#N)c3)ncn2)ccc1N(C)CCN(C)C [Example 11, 5-[6-[(5-[[2-(dimethylamino)ethyl](methyl)amino]-6-methoxypyridin-2-yl)amino]pyrimidin-4-yl]-2-(oxan-4-yloxy)benzonitrile]",< 100 nM,< 100 nM
"COc1nc(Nc2cc(-c3ccc(OC4CCOCC4)c(C#N)c3)ncn2)ccc1N1CCN(C)CC1 [Example 12, 5-(6-[[6-methoxy-5-(4-methylpiperazin-1-yl)pyridin-2-yl]amino]pyrimidin-4-yl)-2-(oxan-4-yloxy)benzonitrile]",< 100 nM,< 100 nM
"COc1nc(Nc2cc(-c3ccc(OC4CCOCC4)c(C#N)c3)ncn2)ccc1N(C)CC(=O)N(C)C [Example 13, 2-[[6-([6-[3-cyano-4-(oxan-4-yloxy)phenyl]pyrimidin-4-yl]amino)-2-methoxypyridin-3-yl](methyl)amino]-N,N-dimethylacetamide]",< 100 nM,< 100 nM
"COc1nc(Nc2cc(-c3ccc(OC4CCOCC4)c(C#N)c3)ncn2)ccc1N1CCN(CC(F)F)CC1 [Example 14, 5-[6-([5-[4-(2,2-difluoroethyl)piperazin-1-yl]-6-methoxypyridin-2-yl]amino)pyrimidin-4-yl]-2-(oxan-4-yloxy)benzonitrile]",< 100 nM,< 100 nM
"COc1nc(Nc2cc(-c3ccc(OC4CCOCC4)c(C#N)c3)ncn2)ccc1N1C[C@@H](C)O[C@@H](C)C1 [Example 15, 5-[6-([5-[(2R,6S)-2,6-dimethylmorpholin-4-yl]-6-methoxypyridin-2-yl]amino)pyrimidin-4-yl]-2-(oxan-4-yloxy)benzonitrile]",< 100 nM,< 100 nM
"COc1nc(Nc2cc(-c3ccc(OC4CCOCC4)c(C#N)c3)ncn2)ccc1N1C[C@@H](C)N(C2COC2)[C@@H](C)C1 [Example 16, 5-[6-([5-[(3R,5S)-3,5-dimethyl-4-(oxetan-3-yl)piperazin-1-yl]-6-methoxypyridin-2-yl]amino)pyrimidin-4-yl]-2-(oxan-4-yloxy)benzonitrile]",< 100 nM,< 100 nM
"COc1nc(Nc2cc(-c3ccc(OC4CCOCC4)c(C#N)c3)ncn2)ccc1C1CCNCC1 [Example 17, 5-(6-[[6-methoxy-5-(piperidin-4-yl)pyridin-2-yl]amino]pyrimidin-4-yl)-2-(oxan-4-yloxy)benzonitrile]",< 100 nM,< 100 nM
"COc1nc(Nc2cc(-c3ccc(OC4CCOCC4)c(C#N)c3)ncn2)ccc1C1CCN(C)CC1 [Example 18, 5-(6-[[6-methoxy-5-(1-methylpiperidin-4-yl)pyridin-2-yl]amino]pyrimidin-4-yl)-2-(oxan-4-yloxy)benzonitrile]",< 100 nM,< 100 nM
"COc1nc(Nc2cc(-c3ccc(OC4CCOCC4)c(C#N)c3)ncn2)ccc1CNC1CCN(C)CC1 [Example 19, 5-[6-[(6-methoxy-5-[[(1-methylpiperidin-4-yl)amino]methyl]pyridin-2-yl)amino]pyrimidin-4-yl]-2-(oxan-4-yloxy)benzonitrile]",< 100 nM,< 100 nM
"COc1nc(Nc2cc(-c3ccc(OC4CCOCC4)c(C#N)c3)ncn2)ccc1C1CCN(C)C1 (stereo not shown) [Example 20, 5-(6-[[6-methoxy-5-(1-methylpyrrolidin-3-yl)pyridin-2-yl]amino]pyrimidin-4-yl)-2-(oxan-4-yloxy)benzonitrile]",< 100 nM,< 100 nM
"COc1nc(Nc2cc(-c3cc(C#N)c(OC4CCOCC4)cn3)ncn2)ccc1N1CCN(C)CC1 [Example 21, 2-(6-[[6-methoxy-5-(4-methylpiperazin-1-yl)pyridin-2-yl]amino]pyrimidin-4-yl)-5-(oxan-4-yloxy)pyridine-4-carbonitrile]",< 100 nM,< 100 nM
"COc1nc(Nc2cc(-c3ccc(OC4CCOCC4)c(C#N)n3)ncn2)ccc1N1CCN(C)CC1 [Example 22, 6-(6-[[6-methoxy-5-(4-methylpiperazin-1-yl)pyridin-2-yl]amino]pyrimidin-4-yl)-3-(oxan-4-yloxy)pyridine-2-carbonitrile]",100 to 1000 nM,100 to 1000 nM
"COc1nc(Nc2cc(-c3cnc(OC4CCOCC4)c(C#N)c3)ncn2)ccc1N1CCN(C)CC1 [Example 23, 5-(6-[[6-methoxy-5-(4-methylpiperazin-1-yl)pyridin-2-yl]amino]pyrimidin-4-yl)-2-(oxan-4-yloxy)pyridine-3-carbonitrile]",< 100 nM,< 100 nM
"COc1nc(Nc2cc(-c3cc(C#N)c(OC4CCOCC4)cn3)ncn2)ccc1C1CCN(C)CC1 [Example 24, 2-(6-[[6-methoxy-5-(1-methylpiperidin-4-yl)pyridin-2-yl]amino]pyrimidin-4-yl)-5-(oxan-4-yloxy)pyridine-4-carbonitrile]",< 100 nM,< 100 nM
"COc1nc(Nc2cc(-c3ccc(O[C@@H]4CCN(C(=O)CO)CC4(F)F)c(C#N)c3)ncn2)ccc1N1CCN(C)CC1 [Example 61, 2-[[(4R)-3,3-difluoro-1-(2-hydroxyacetyl)piperidin-4-yl]oxy]-5-(6-[[6-methoxy-5-(4-methylpiperazin-1-yl)pyridin-2-yl]amino]pyrimidin-4-yl)benzonitrile]",,< 100 nM
